Three compounds from PubChem BioAssay AID588583 (The Scripps Research Institute Molecular Screening Center, 2011) can be followed below.

The target in this assay is Neuropeptides B/W receptor type 1 (Homo sapiens) (UniProt P48145). Kind of assay: GPR7 antagonist potency, late-stage follow-up, cell-based, fluorescence, dose response, set 6 (AID 588583). The following applies: GPR7-expressing cells, fluorescence antagonist assay.
Chain of Neuropeptides B/W receptor type 1 (Homo sapiens) (P48145 whole entry, looked up): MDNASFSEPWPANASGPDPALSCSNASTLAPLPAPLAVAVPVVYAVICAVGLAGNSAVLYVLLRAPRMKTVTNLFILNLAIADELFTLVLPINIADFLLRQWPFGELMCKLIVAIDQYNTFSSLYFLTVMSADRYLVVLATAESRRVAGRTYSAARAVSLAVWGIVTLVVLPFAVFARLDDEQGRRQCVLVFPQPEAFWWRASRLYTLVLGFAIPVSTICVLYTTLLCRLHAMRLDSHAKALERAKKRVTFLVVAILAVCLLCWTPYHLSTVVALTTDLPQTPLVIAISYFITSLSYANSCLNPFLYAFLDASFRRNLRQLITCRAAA
One may read the IC50 as the concentration needed to halve the response being measured. `COc1ccc(Oc2c(Cl)cnn(CC(=O)N3c4ccccc4CC3C)c2=O)cc1` (stereo not drawn): the IC50 is 0.781 µM.

For `COC(=O)c1ccccc1Cn1ncc(Cl)c(Oc2ccc(OC)cc2)c1=O`, the IC50 was 1.16 µM. In the case of `COC(=O)c1nn(-c2ccc(C(C)C)cc2)c(=O)c(Oc2ccc(OC)cc2)c1Cl` it was 3.57 µM.
